Numbers after ± are expanded uncertainties.
Conditions: 101.33 kPa, Liquid, Vibrating tube method

Compound | mass density (278.15 K) | mass density (283.15 K) | mass density (288.15 K) | mass density (293.15 K) | mass density (298.15 K) | mass density (303.15 K) | mass density (308.15 K) | mass density (313.15 K) | mass density (318.15 K) | mass density (323.15 K) | mass density (328.15 K) | mass density (333.15 K) | mass density (338.15 K) | mass density (343.15 K) | mass density (348.15 K) | mass density (353.15 K)
CCCC[P+](C)(CCCC)CCCC.O=S(=O)([N-]S(=O)(=O)C(F)(F)F)C(F)(F)F | 1270.8 ± 1.4 kg/m3 | 1266.52 ± 1.4 kg/m3 | 1262.25 ± 1.4 kg/m3 | 1257.99 ± 1.4 kg/m3 | 1253.72 ± 1.4 kg/m3 | 1249.58 ± 1.4 kg/m3 | 1245.46 ± 1.4 kg/m3 | 1241.32 ± 1.4 kg/m3 | 1237.2 ± 1.4 kg/m3 | 1233.09 ± 1.4 kg/m3 | 1228.98 ± 1.4 kg/m3 | 1224.88 ± 1.3 kg/m3 | 1220.79 ± 1.3 kg/m3 | 1216.71 ± 1.3 kg/m3 | 1212.65 ± 1.3 kg/m3 | 1208.59 ± 1.3 kg/m3
CCCCn1cc[n+](C)c1C.O=S(=O)([N-]S(=O)(=O)C(F)(F)F)C(F)(F)F | 1437.39 ± 0.29 kg/m3 | 1432.61 ± 0.28 kg/m3 | 1427.91 ± 0.28 kg/m3 | 1423.31 ± 0.28 kg/m3 | 1418.69 ± 0.28 kg/m3 | 1414.07 ± 0.28 kg/m3 | 1409.46 ± 0.28 kg/m3 | 1404.86 ± 0.27 kg/m3 | 1400.25 ± 0.27 kg/m3 | 1395.67 ± 0.27 kg/m3 | 1391.1 ± 0.27 kg/m3 | 1386.54 ± 0.27 kg/m3 | 1381.98 ± 0.27 kg/m3 | 1377.44 ± 0.27 kg/m3 | 1372.92 ± 0.26 kg/m3 | 1368.39 ± 0.26 kg/m3

Source: the NIST ThermoML archive (doi:10.1016/j.fluid.2014.07.015)
